From patent publication US20140017673A1, “METHOD FOR ENUMERATING EUKARYOTIC CELL MICRONUCLEI WITH AN EMPHASIS ON SIMULTANEOUSLY ACQUIRING CYTOTOXICITY AND MODE OF ACTION INFORMATION” (priority 2012, published 2014)
Structures can show the parent of a compound that is named as a salt. Where two headings read alike, the source gives them in different places.

Experiments:
TK6 cells [1] = details: for Avg. % EMA+ / Avg. % M / Avg. % MN / Avg. % RS / Avg. M as % G2/M: human
TK6 cells [2] = experiment: Polyploidy as an aneugenic signature (flow cytometry, 96-well plate); details: 0.025 μg paclitaxel/ml, approximately 24 hrs
TK6 cells [3] = experiment: Treatment with demecolcine and assessment of anti-H3-P performance (metaphase events by flow cytometry); format: cell-based, human; details: 0.05 ng/ml, 5 hours
Procedure: TK6 cells were treated with 0 or 0.05 ng demecolcine/ml in T25 tissue culture flasks. At the start of treatment, cells were at 5×10^5/ml in a volume of 20 ml per flask. Flasks were incubated at 37° C., 5% CO2, and in a humid atmosphere. After 5 hours, flasks were removed and 1 ml aliquots were placed in to 15 ml centrifuge tubes. Cells were collected via centrifugation, and supernatants aspirated such that approximately 25 μl of supernatant remained per tube. Cells were gently resuspended with tapping. 300 μl “Lysis Solution 1” was added slowly to each tube (approximately 5 seconds per sample). […]
Samples were gently pipetted to resuspend the particles. […] SYTOX®-associated fluorescence emission was collected in the FITC channel, EMA-associated fluorescence was collected in the PerCP-Cy5 channel, and anti-H3-P-Alexa 647 associated fluorescence was collected in the APC channel. Events were triggered on FITC fluorescence. The flow cytometry gating strategy that was developed for this scoring application required events to meet each of several separate criteria before they were scored as nuclei, MN, chromatin debris, or metaphase chromosomes. […]
In this experiment, TK6 cells were treated with 0 or 0.05 ng/ml demecolcine, a metaphase blocking agent. […] However, the anti-H3-P associated fluorescence signal is able to differentiate between G2 and metaphase chromosomes. […]

## COC(=O)Nc1nc2ccccc2[nH]1 [Carbendazim]
TK6 cells [1]; 0.125 μg/ml
  Avg. % EMA+: 2.3%
  Avg. % M: 1.6%
  Avg. % MN: 0.8%
  Avg. % RS: 96.9%
  Avg. M as % G2/M: 6.1%
TK6 cells [1]; 0.5 μg/ml
  Avg. % EMA+: 6.4%
  Avg. % M: 1.6%
  Avg. % MN: 3.8%
  Avg. % RS: 71.2%
  Avg. M as % G2/M: 10.3%
TK6 cells [1]; 1 μg/ml
  Avg. % EMA+: 10.0%
  Avg. % M: 5.6%
  Avg. % MN: 14.7%
  Avg. % RS: 49.7%
  Avg. M as % G2/M: 24.9%
TK6 cells [1]; 2 μg/ml
  Avg. % EMA+: 12.0%
  Avg. % M: 5.4%
  Avg. % MN: 22.3%
  Avg. % RS: 43.3%
  Avg. M as % G2/M: 18.5%

## COc1cc2c(c(OC)c1OC)-c1ccc(OC)c(=O)cc1[C@@H](NC(C)=O)CC2 [Colchicine]
TK6 cells [1]
  cytotoxicity (dose-dependent reductions to RS), FIG. 3: cytotoxic
  genotoxicity (increased MN observed), FIG. 3 dose-response: genotoxic

## COc1cc([C@@H]2c3cc4c(cc3[C@@H](O[C@@H]3O[C@@H]5CO[C@@H](C)O[C@H]5[C@H](O)[C@H]3O)[C@H]3COC(=O)[C@H]23)OCO4)cc(OC)c1O [Etoposide]
TK6 cells [1]; 0.005 μg/ml
  Avg. % EMA+: 2.3%
  Avg. % M: 1.6%
  Avg. % RS: 83.3%
  Avg. M as % G2/M: 5.7%
TK6 cells [1]; 0.01 μg/ml
  Avg. % EMA+: 3.7%
  Avg. % M: 1.4%
  Avg. % RS: 69.6%
  Avg. M as % G2/M: 5.2%
TK6 cells [1]; 0.02 μg/ml
  Avg. % EMA+: 5.3%
  Avg. % M: 1.2%
  Avg. % RS: 52.6%
  Avg. M as % G2/M: 3.8%

## COC1=CC(=O)C[C@@H](C)[C@]12Oc1c(Cl)c(OC)cc(OC)c1C2=O [Griseofulvin]
TK6 cells [1]; 0.375 μg/ml
  Avg. % EMA+: 3.0%
  Avg. % M: 1.9%
  Avg. % RS: 96.6%
  Avg. M as % G2/M: 6.0%
TK6 cells [1]; 0.75 μg/ml
  Avg. % EMA+: 2.6%
  Avg. % M: 1.8%
  Avg. % RS: 99.5%
  Avg. M as % G2/M: 5.8%
TK6 cells [1]; 3 μg/ml
  Avg. % EMA+: 8.2%
  Avg. % M: 3.0%
  Avg. % RS: 64.9%
  Avg. M as % G2/M: 19.4%
TK6 cells [1]; 6 μg/ml
  Avg. % EMA+: 13.5%
  Avg. % M: 5.8%
  Avg. % RS: 46.6%
  Avg. M as % G2/M: 26.4%

## NC(=O)NO [HU, Hydroxyurea]
TK6 cells [1]; 0.5 μg/ml
  Avg. % EMA+: 2.4%
  Avg. % M: 1.6%
  Avg. % MN: 0.4%
  Avg. % RS: 100.9%
  Avg. M as % G2/M: 5.4%
TK6 cells [1]; 0.9 μg/ml
  Avg. % EMA+: 2.3%
  Avg. % M: 1.6%
  Avg. % MN: 0.5%
  Avg. % RS: 97.1%
  Avg. M as % G2/M: 5.9%
TK6 cells [1]; 3.8 μg/ml
  Avg. % EMA+: 5.8%
  Avg. % M: 1.7%
  Avg. % MN: 0.9%
  Avg. % RS: 65.7%
  Avg. M as % G2/M: 4.7%
TK6 cells [1]; 7.5 μg/ml
  Avg. % EMA+: 13.7%
  Avg. % M: 1.0%
  Avg. % MN: 1.9%
  Avg. % RS: 44.3%
  Avg. M as % G2/M: 3.9%

## CC(=O)O[C@H]1C(=O)[C@@]2(C)[C@H]([C@H](OC(=O)c3ccccc3)[C@]3(O)C[C@H](OC(=O)[C@H](O)[C@@H](NC(=O)c4ccccc4)c4ccccc4)C(C)=C1C3(C)C)[C@]1(OC(C)=O)CO[C@@H]1C[C@@H]2O [Paclitaxel]
TK6 cells [1]; 1.6 μg/ml
  Avg. % EMA+: 3.7%
  Avg. % M: 1.7%
  Avg. % MN: 1.5%
  Avg. M as % G2/M: 7.1%
TK6 cells [1]; 2.4 μg/ml
  Avg. % EMA+: 7.3%
  Avg. % M: 2.2%
  Avg. % MN: 4.4%
  Avg. M as % G2/M: 9.7%
TK6 cells [1]; 3.3 μg/ml
  Avg. % EMA+: 10.0%
  Avg. % M: 3.4%
  Avg. % MN: 9.2%
  Avg. M as % G2/M: 12.2%
TK6 cells [1]; 4.9 μg/ml
  Avg. % EMA+: 12.3%
  Avg. % M: 4.4%
  Avg. % MN: 12.5%
  Avg. M as % G2/M: 11.3%
TK6 cells [1]; 6.5 μg/ml
  Avg. % EMA+: 13.2%
  Avg. % M: 4.6%
  Avg. % MN: 15.8%
  Avg. M as % G2/M: 10.2%
TK6 cells [2]
  induction of polyploid nuclei (8n), FIG. 6: robust induction

## CC[C@]1(O)C[C@@H]2CN(CCc3c([nH]c4ccccc34)[C@@](C(=O)OC)(c3cc4c(cc3OC)N(C)[C@H]3[C@@](O)(C(=O)OC)[C@H](OC(C)=O)[C@]5(CC)C=CCN6CC[C@]43[C@@H]65)C2)C1 [Vinblastine sulfate]
TK6 cells [1]; 0.1 μg/ml
  Avg. % EMA+: 2.0%
  Avg. % M: 1.8%
  Avg. % MN: 0.7%
  Avg. % RS: 88.0%
  Avg. M as % G2/M: 8.6%
TK6 cells [1]; 0.2 μg/ml
  Avg. % EMA+: 2.7%
  Avg. % M: 1.5%
  Avg. % MN: 1.6%
  Avg. % RS: 79.6%
  Avg. M as % G2/M: 9.0%
TK6 cells [1]; 0.4 μg/ml
  Avg. % EMA+: 4.0%
  Avg. % M: 2.7%
  Avg. % MN: 3.3%
  Avg. % RS: 70.6%
  Avg. M as % G2/M: 17.1%
TK6 cells [1]; 0.8 μg/ml
  Avg. % EMA+: 5.8%
  Avg. % M: 7.2%
  Avg. % MN: 7.5%
  Avg. % RS: 48.0%
  Avg. M as % G2/M: 32.0%
TK6 cells [1]; 1.6 μg/ml
  Avg. % EMA+: 8.8%
  Avg. % M: 4.4%
  Avg. % MN: 12.6%
  Avg. % RS: 37.6%
  Avg. M as % G2/M: 14.1%

## CC[C@]1(O)C[C@H]2CN(CCc3c([nH]c4ccccc34)[C@@](C(=O)OC)(c3cc4c(cc3OC)N(C=O)[C@H]3[C@@](O)(C(=O)OC)[C@H](OC(C)=O)[C@]5(CC)C=CCN6CC[C@]43[C@@H]65)C2)C1 [Vincristine sulfate]
TK6 cells [1]; 0.125 μg/ml
  Avg. % EMA+: 3.3%
  Avg. % M: 1.9%
  Avg. % MN: 0.6%
  Avg. % RS: 91.9%
  Avg. M as % G2/M: 7.1%
TK6 cells [1]; 0.5 μg/ml
  Avg. % EMA+: 5.1%
  Avg. % M: 2.1%
  Avg. % MN: 2.7%
  Avg. % RS: 72.1%
  Avg. M as % G2/M: 8.4%
TK6 cells [1]; 1 μg/ml
  Avg. % EMA+: 8.2%
  Avg. % M: 3.4%
  Avg. % MN: 7.9%
  Avg. % RS: 53.1%
  Avg. M as % G2/M: 13.5%

## CN[C@H]1CCc2cc(OC)c(OC)c(OC)c2-c2ccc(OC)c(=O)cc21 [demecolcine, Demecolcine]
TK6 cells [3]
  frequency of 4n anti-H3-P-positive events, FIG. 2: greatly increased
